Here are results for 34 molecules from ChEMBL document CHEMBL6109079, “Discovery of novel pyrimidinetrione derivatives as DprE1 inhibitors with potent antimycobacterial activities” (Eur J Med Chem, 2025).

Data set [1] is described as follows: Inhibition of DprE1 (unknown origin) preincubated with FAD followed by compound addition and measured after 2 mins by fluorescence based microplate reader. Details: species or system Bacteria.
The nature of data set [2]: Selectivity index, ratio of CC50 for cytotoxicity against human THP-1 cells to MIC50 for antibacterial activity against Mycobacterium tuberculosis H37Ra. In kind it is toxicity, cell-based. To be noted: read-out: Selectivity Index.
The subject of data set [3] is Mycobacterium tuberculosis. The experiment in a line: Antibacterial activity against Mycobacterium tuberculosis H37Ra assessed as inhibition of bacterial growth incubated for 1 weeks by absorbance based microplate reader. The data set is classed as functional. Conditions: 168 h.

Each structure is given as a SMILES string. ≈ marks a conversion by molar mass, not a printed value.

For orientation: IC50 means the concentration needed to halve the response being measured. A higher IC50 goes with weaker potency in that assay. In turn, `O=C1NC(=O)N(Cc2ccccc2)C(=O)/C1=C/NNC(=O)c1cccc2ccccc12` gave an IC50 in data set [1] of 23.3 µM.

`CC(=O)NN/C=C1\C(=O)NC(=O)N(Cc2ccccc2)C1=O` came in with an IC50 in data set [1] greater than 100 µM.

In the case of `O=C(Cc1ccccc1)NN/C=C1\C(=O)NC(=O)N(Cc2ccccc2)C1=O`, it took 12.3 µM to reach half-maximal inhibition in data set [1] (IC50).

In data set [1], `CCOCC(=O)NN/C=C1\C(=O)NC(=O)N(Cc2ccccc2)C1=O` had an IC50 greater than 100 µM.

Molecule `O=C1NC(=O)N(Cc2ccccc2)C(=O)/C1=C/NNC(=O)c1cccc(O)c1` returned an IC50 in data set [1] of 6.49 µM.

`O=C(CO)NN/C=C1\C(=O)NC(=O)N(Cc2ccccc2)C1=O` came in with a half-inhibitory concentration (IC50) in data set [1] greater than 100 µM.

The molecule `O=C1NC(=O)N(Cc2ccccc2)C(=O)/C1=C/NNC(=O)c1ccc2ccccc2c1` yielded a half-inhibitory concentration (IC50) in data set [1] of 10.8 µM.

For `COc1ccc(C(=O)NN/C=C2\C(=O)NC(=O)N(Cc3ccccc3)C2=O)cc1`, the concentration for half-maximal inhibition (IC50) in data set [1] came out at 3.03 µM.

For `O=C1NC(=O)N(C2CC2)C(=O)/C1=C/NNC(=O)c1ccnc2ccccc12`, the IC50 in data set [1] was 14.3 µM.

Turning to `O=C(CCl)NN/C=C1\C(=O)NC(=O)N(Cc2ccccc2)C1=O`, the concentration for half-maximal inhibition (IC50) in data set [1] was greater than 100 µM.

`O=C1NC(=O)N(Cc2ccccc2)C(=O)/C1=C/NNC(=O)c1ccc(O)cc1` yielded an IC50 in data set [1] of 8.56 µM.

Consider `C=CCN1C(=O)NC(=O)/C(=C\NNC(=O)c2ccccc2)C1=O`, for which the IC50 in data set [1] is 15.3 µM.

In the case of `O=C1NC(=O)N(Cc2ccccc2)C(=O)/C1=C/NNC(=O)c1ccccc1`, the 50% inhibitory concentration (IC50) in data set [1] was found to be 7.25 µM. Against the preceding molecule, the IC50 is about 2.1-fold lower.

In data set [1], `C=CCN1C(=O)NC(=O)/C(=C\NNC(=O)c2cccc3ncccc23)C1=O` had a half-inhibitory concentration (IC50) of 11.1 µM.

As to `Cc1ccc(S(=O)(=O)C(=O)NN/C=C2\C(=O)NC(=O)N(Cc3ccccc3)C2=O)cc1`, inhibition in data set [1] was half-maximal at 62 µM (IC50).

A word on the MIC50: it is the lowest concentration that inhibits either 50% of growth or 50% of the strains tested, depending on the study. As to `CC(=O)NC[C@H]1CN(c2ccc(N3CCOCC3)c(F)c2)C(=O)O1` [LINEZOLID], the selectivity ratio in data set [2] is greater than 120. For the same molecule, the MIC50 in data set [3] worked out at 1.67 µM (≈ 0.563 µg/mL).

As for `O=C1NC(=O)N(Cc2ccccc2)C(=O)/C1=C/NNC(=O)c1cccc2ncccc12`, in data set [1], the IC50 was determined as 12.6 µM.

Consider `C=CCN1C(=O)NC(=O)/C(=C\NNC(=O)c2ccnc3ccccc23)C1=O`, for which, in data set [1], 12.8 µM corresponded to half-maximal inhibition (IC50). This IC50 and that of the molecule before are within 1.5-fold of each other.

Molecule `CC[C@@H](C)N1C(=O)NC(=O)/C(=C\NNC(=O)c2ccccc2)C1=O` had a concentration for half-maximal inhibition (IC50) in data set [1] of 13.4 µM. This IC50 and that of the molecule before are within 1.5-fold of each other.

Regarding `O=C1NC(=O)N(Cc2ccccc2)C(=O)/C1=C/NNC(=O)c1ccnc2ccccc12`, the IC50 in data set [1] is 13.8 µM.

In data set [1], `O=C1NC(=O)N(Cc2ccccc2)C(=O)/C1=C/NNC(=O)c1cccnc1` had a half-maximal inhibitory concentration (IC50) of 28.8 µM.

Molecule `O=C1NC(=O)N(c2ccccc2)C(=O)/C1=C/NNC(=O)c1cccnc1` showed an IC50 in data set [1] of 32.1 µM.

`COCC(=O)NN/C=C1\C(=O)NC(=O)N(Cc2ccccc2)C1=O` came in with a concentration for half-maximal inhibition (IC50) in data set [1] greater than 100 µM.

As for `CC(=O)Nc1ccc(C(=O)NN/C=C2\C(=O)NC(=O)N(Cc3ccccc3)C2=O)cc1`, the IC50 in data set [1] was determined as 27.6 µM.

Molecule `O=C1NC(=O)N(Cc2ccccc2)C(=O)/C1=C/NNC(=O)c1ccc(Cl)cc1` displayed an IC50 in data set [1] of 23.9 µM.

Take `O=C1NC(=O)N(C2CCCCC2)C(=O)/C1=C/NNC(=O)c1cccnc1`: the IC50 in data set [1] worked out at 30.4 µM.

The molecule `CC(=O)Nc1cccc(C(=O)NN/C=C2\C(=O)NC(=O)N(Cc3ccccc3)C2=O)c1` registered an IC50 in data set [1] of 20.7 µM.

For the molecule `O=C1NC(=O)N(Cc2ccccc2)C(=O)/C1=C/NNC(=O)c1cccc([N+](=O)[O-])c1`, the IC50 in data set [1] was 42.5 µM.

`COc1cccc(C(=O)NN/C=C2\C(=O)NC(=O)N(Cc3ccccc3)C2=O)c1` registered a half-maximal inhibitory concentration (IC50) in data set [1] of 6.53 µM. Against the preceding molecule, the IC50 is about 6.5-fold lower.

Molecule `Nc1cccc(C(=O)NN/C=C2\C(=O)NC(=O)N(Cc3ccccc3)C2=O)c1` returned an IC50 in data set [1] of 4.36 µM.

Take `O=C1NC(=O)N(CCc2ccccc2)C(=O)/C1=C/NNC(=O)c1cccnc1`: the IC50 in data set [1] turned out to be 24.8 µM.

In the case of `CC(C)(C)C(=O)NN/C=C1\C(=O)NC(=O)N(Cc2ccccc2)C1=O`, the half-inhibitory concentration (IC50) in data set [1] was greater than 100 µM.

The molecule `O=C1NC(=O)N(Cc2ccccc2)C(=O)/C1=C/NNC(=O)c1cccc(Cl)c1` showed an IC50 in data set [1] of 24.3 µM.

For the molecule `O=C1NC(=O)N(C2CC2)C(=O)/C1=C/NNC(=O)c1cccc2ncccc12`, the IC50 in data set [1] turned out to be 15.2 µM.
